This experiment addresses Recombinant GMPPNP-loaded KRAS G12C (KRAS-G12C(ON)) / GST-RAF1 RBD (Homo sapiens, UniProt P01116, G12C). Description: KRAS G12C RAF Disruption Assay (HTRF). The conditions noted are these: GMPPNP-loaded KRAS G12C 5 nM, compound 20 min at room temperature, GST-RAF1 RBD 9 nM, HTRF signal; read-out: KRASG12C RAF Disruption Assay (IC50). The class given is biochemical. The protocol: Recombinant GST-RAF1 RBD (9 nM) was added, and the reaction mixture was incubated for 20 minutes. SA-Tb (0.25 nM) was added, and the reaction mixture was incubated for 3 hours. HTRF signal was measured (PerkinElmer Envision), the signal ratio (λem 520/λem 495) was calculated, and IC50 values were calculated from the dose-response curve.
Sequence of Recombinant GMPPNP-loaded KRAS G12C (KRAS-G12C(ON)) / GST-RAF1 RBD (P01116 1-188 isoform P01116-2 G12C): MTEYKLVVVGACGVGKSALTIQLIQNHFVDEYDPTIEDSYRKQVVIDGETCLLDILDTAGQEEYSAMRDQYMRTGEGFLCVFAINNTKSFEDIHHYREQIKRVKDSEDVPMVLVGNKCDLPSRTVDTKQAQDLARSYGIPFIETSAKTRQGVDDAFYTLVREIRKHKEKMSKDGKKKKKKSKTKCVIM
With `CN1CCC[C@H]1COc1nc2c(c(N3CCN(C(=O)C(F)=Cc4ccns4)[C@@H](CC#N)C3)n1)CCN(c1cccc3cccc(Cl)c13)C2` (racemic) [Example 9, 2-((S)-4-(7-(8-chloronaphthalen-1-yl)-2-(((S)-1-methylpyrrolidin-2-yl)methoxy)-5,6,7,8-tetrahydropyrido[3,4-d]pyrimidin-4-yl)-1-(2-fluoro-3-(isothiazol-5-yl)acryloyl)piperazin-2-yl)acetonitrile], the IC50 was 57000 nM.

On to `CN1CCC[C@H]1COc1nc2c(c(N3CCN(C(=O)/C(F)=C/c4cccnc4)[C@@H](CC#N)C3)n1)CCN(c1cccc3cccc(Cl)c13)C2` [Example 2, 2-((S)-4-(7-(8-chloronaphthalen-1-yl)-2-(((S)-1-methylpyrrolidin-2-yl)methoxy)-5,6,7,8-tetrahydropyrido[3,4-d]pyrimidin-4-yl)-1-((Z)-2-fluoro-3-(pyridin-3-yl)acryloyl)piperazin-2-yl)acetonitrile], for which the IC50 is 40300 nM.

`CN1CCC[C@H]1COc1nc2c(c(N3CCN(C(=O)/C(F)=C/c4ccncc4)[C@@H](CC#N)C3)n1)CCN(c1cccc3cccc(Cl)c13)C2` [Example 3, 2-((S)-4-(7-(8-chloronaphthalen-1-yl)-2-(((S)-1-methylpyrrolidin-2-yl)methoxy)-5,6,7,8-tetrahydropyrido[3,4-d]pyrimidin-4-yl)-1-((Z)-2-fluoro-3-(pyridin-4-yl)acryloyl)piperazin-2-yl)acetonitrile]: the IC50 was found to be 329 nM.

For `CN1CCC[C@H]1COc1nc2c(c(N3CCN(C(=O)/C(F)=C/c4ncccn4)[C@@H](CC#N)C3)n1)CCN(c1cccc3cccc(Cl)c13)C2` [Example 4, 2-((S)-4-(7-(8-chloronaphthalen-1-yl)-2-(((S)-1-methylpyrrolidin-2-yl)methoxy)-5,6,7,8-tetrahydropyrido[3,4-d]pyrimidin-4-yl)-1-((Z)-2-fluoro-3-(pyrimidin-2-yl)acryloyl)piperazin-2-yl)acetonitrile], the IC50 is 103 nM.

With `CN1CCC[C@H]1COc1nc2c(c(N3CCN(C(=O)/C(F)=C/c4ncco4)[C@@H](CC#N)C3)n1)CCN(c1cccc3cccc(Cl)c13)C2` [Example 6, 2-((S)-4-(7-(8-chloronaphthalen-1-yl)-2-(((S)-1-methylpyrrolidin-2-yl)methoxy)-5,6,7,8-tetrahydropyrido[3,4-d]pyrimidin-4-yl)-1-((Z)-2-fluoro-3-(oxazol-2-yl)acryloyl)piperazin-2-yl)acetonitrile], the IC50 is 89 nM.

As for `N#CC[C@H]1CN(c2nc(OC[C@@]34CCCN3C[C@H](F)C4)nc3c2CCN(c2cccc4cccc(Cl)c24)C3)CCN1C(=O)/C(F)=C/c1ccccn1` [Example 7, 2-((S)-4-(7-(8-chloronaphthalen-1-yl)-2 (((2R,7aS)-2-fluorotetrahydro-1H-pyrrolizin-7a(5H)-yl)methoxy)-5,6,7,8-tetrahydropyrido[3,4-d]pyrimidin-4-yl)-1-((Z)-2-fluoro-3-(pyridin-2-yl)acryloyl)piperazin-2-yl)acetonitrile], the IC50 stood at 74 nM.

As for `N#CC[C@H]1CN(c2nc(OC[C@@]34CCCN3C[C@H](F)C4)nc3c2CCN(c2cccc4cccc(Cl)c24)C3)CCN1C(=O)/C(F)=C/c1nccs1` [Example 8, 2-((S)-4-(7-(8-chloronaphthalen-1-yl)-2 (((2R,7aS)-2-fluorotetrahydro-1H-pyrrolizin-7a(5H)-yl)methoxy)-5,6,7,8-tetrahydropyrido[3,4-d]pyrimidin-4-yl)-1-((Z)-2-fluoro-3-(thiazol-2-yl)acryloyl)piperazin-2-yl)acetonitrile], the half-maximal inhibitory concentration (IC50) worked out at 55 nM.

Turning to `CN1CCC[C@H]1COc1nc2c(c(N3CCN(C(=O)/C(F)=C/c4nccn4C)[C@@H](CC#N)C3)n1)CCN(c1cccc3cccc(Cl)c13)C2` [Example 10, 2-((S)-4-(7-(8-chloronaphthalen-1-yl)-2-(((S)-1-methylpyrrolidin-2-yl)methoxy)-5,6,7,8-tetrahydropyrido[3,4-d]pyrimidin-4-yl)-1-((Z)-2-fluoro-3-(1-methyl-1H-imidazol-2-yl)acryloyl)piperazin-2-yl)acetonitrile], the IC50 worked out at 24000 nM.

`Cc1cccc(/C=C(\F)C(=O)N2CCN(c3nc(OC[C@@H]4CCCN4C)nc4c3CCN(c3cccc5cccc(Cl)c35)C4)C[C@@H]2CC#N)n1` [Example 11, 2-((S)-4-(7-(8-chloronaphthalen-1-yl)-2-(((S)-1-methylpyrrolidin-2-yl)methoxy)-5,6,7,8-tetrahydropyrido[3,4-d]pyrimidin-4-yl)-1-((Z)-2-fluoro-3-(6-methylpyridin-2-yl)acryloyl)piperazin-2-yl)acetonitrile]: the IC50 was 144 nM.

On to `Cc1ccnc(/C=C(\F)C(=O)N2CCN(c3nc(OC[C@@H]4CCCN4C)nc4c3CCN(c3cccc5cccc(Cl)c35)C4)C[C@@H]2CC#N)c1` [Example 12, 2-((S)-4-(7-(8-chloronaphthalen-1-yl)-2-(((S)-1-methylpyrrolidin-2-yl)methoxy)-5,6,7,8-tetrahydropyrido[3,4-d]pyrimidin-4-yl)-1-((Z)-2-fluoro-3-(4-methylpyridin-2-yl)acryloyl)piperazin-2-yl)acetonitrile], for which the IC50 turned out to be 129 nM.

As to `Cc1ccc(/C=C(\F)C(=O)N2CCN(c3nc(OC[C@@H]4CCCN4C)nc4c3CCN(c3cccc5cccc(Cl)c35)C4)C[C@@H]2CC#N)nc1` [Example 13, 2-((S)-4-(7-(8-chloronaphthalen-1-yl)-2-(((S)-1-methylpyrrolidin-2-yl)methoxy)-5,6,7,8-tetrahydropyrido[3,4-d]pyrimidin-4-yl)-1-((Z)-2-fluoro-3-(5-methylpyridin-2-yl)acryloyl)piperazin-2-yl)acetonitrile], the IC50 was 192 nM.

Regarding `Cc1cccnc1/C=C(\F)C(=O)N1CCN(c2nc(OC[C@@H]3CCCN3C)nc3c2CCN(c2cccc4cccc(Cl)c24)C3)C[C@@H]1CC#N` [Example 14, 2-((S)-4-(7-(8-chloronaphthalen-1-yl)-2-(((S)-1-methylpyrrolidin-2-yl)methoxy)-5,6,7,8-tetrahydropyrido[3,4-d]pyrimidin-4-yl)-1-((Z)-2-fluoro-3-(3-methylpyridin-2-yl)acryloyl)piperazin-2-yl)acetonitrile], the IC50 amounted to 778 nM.

As for `C[C@H]1CN(C(=O)/C(F)=C/c2nccs2)CCN1c1nc(OC[C@@H]2CCCN2C)nc2c1CCN(c1cccc3cccc(Cl)c13)C2` [Example 15, (Z)-1-((S)-4-(7-(8-chloronaphthalen-1-yl)-2-(((S)-1-methylpyrrolidin-2-yl)methoxy)-5,6,7,8-tetrahydropyrido[3,4-d]pyrimidin-4-yl)-3-methylpiperazin-1-yl)-2-fluoro-3-(thiazol-2-yl)prop-2-en-1-one], the IC50 was 7500 nM.

Regarding `CN1CCC[C@H]1COc1nc2c(c(N3CCN(C(=O)/C(F)=C/c4ccon4)[C@@H](CC#N)C3)n1)CCN(c1cccc3cccc(Cl)c13)C2` [Example 16, 2-((S)-4-(7-(8-chloronaphthalen-1-yl)-2-(((S)-1-methylpyrrolidin-2-yl)methoxy)-5,6,7,8-tetrahydropyrido[3,4-d]pyrimidin-4-yl)-1-((Z)-2-fluoro-3-(isoxazol-3-yl)acryloyl)piperazin-2-yl)acetonitrile], the IC50 was 63700 nM.

On to `CN1CCC[C@H]1COc1nc2c(c(N3CCN(C(=O)/C(F)=C/c4ccno4)[C@@H](CC#N)C3)n1)CCN(c1cccc3cccc(Cl)c13)C2` [Example 17], for which the IC50 was 10500 nM.

Consider `CN1CCC[C@H]1COc1nc2c(c(N3CCN(C(=O)/C(F)=C/c4cn(C)nn4)[C@@H](CC#N)C3)n1)CCN(c1cccc3cccc(Cl)c13)C2` [Example 18], for which the half-maximal inhibitory concentration (IC50) came to 92600 nM.

Values taken from US20250353844A1, “TETRAHYDROPYRIDO 3,4-D PYRIMIDINE DERIVATIVES AS KRAS INHIBITORS” (Bristol-Myers Squibb Company, priority 2022, published 2025).
